From the SangsterLogP compilation

Row | SMILES | logP
1 | c1ccc2oc(-c3ccc(-c4nc5ccccc5o4)s3)nc2c1 | 5.97
2 | CNc1ccc(O)c2c1C(=O)c1c(O)ccc(NC)c1C2=O | 1.61
3 | COc1cc(N)c2c(c1N)C(=O)c1ccccc1C2=O | 1.29
4 | Cc1cc(N(CCO)CCO)ccc1/N=N/c1ccccc1 | 2.7
5 | O=[N+]([O-])c1ccc(/N=N/c2ccc(N(CCO)CCO)cc2)cc1 | 2.05
6 | CCN(CC)c1ccc(/N=N/c2ccc([N+](=O)[O-])cc2)cc1 | 4.69
7 | CN(C)c1ccc(/N=N/c2ccccc2)cc1 | 4.05
8 | CCN(CCO)c1ccc(/N=N/c2ccc([N+](=O)[O-])cc2[N+](=O)[O-])cc1 | 3.11
9 | COc1cc([N+](=O)[O-])ccc1/N=N/c1ccc(N(CCO)CCO)cc1 | 2.27
10 | Cc1ccc2c(c1N)C(=O)c1ccccc1C2=O | 2.8
11 | O=C1c2ccccc2C(=O)c2c(O)c(O)cc(O)c21 | 1.84
12 | O=[N+]([O-])c1ccc(/N=N/c2ccc(Nc3ccccc3)cc2)cc1 | 5.07
13 | OCCN(CCO)c1ccc(/N=N/c2ccccc2)cc1 | 2.31
14 | O=C1c2ccc(O)c(O)c2C(=O)c2c(O)ccc(O)c21 | 2.01
15 | Cc1cc(N(CCO)CCO)ccc1/N=N/c1ccc([N+](=O)[O-])cc1 | 2.7
16 | Cc1cc(N(CCO)CCO)ccc1/N=N/c1c(Cl)cc([N+](=O)[O-])cc1[N+](=O)[O-] | 3.15
17 | O=C1C(c2[nH]c3ccccc3c2O)=Nc2ccccc21 | 2.63
18 | O=[N+]([O-])c1ccc(Nc2ccccc2)c([N+](=O)[O-])c1 | 4.55
19 | Nc1ccc(Nc2ccc([N+](=O)[O-])cc2[N+](=O)[O-])cc1 | 3.32
20 | Nc1ccc(N=Nc2ccccc2)cc1 | 2.62
21 | O=C1c2ccccc2C(=O)c2c(O)ccc(O)c21 | 2.34
22 | Cc1cc(N(CCO)CCO)ccc1/N=N/c1ccc([N+](=O)[O-])cc1Cl | 3.41
23 | Cc1cc(N(CCO)CCC#N)ccc1/N=N/c1ccc([N+](=O)[O-])cc1 | 2.97

More lines, now with the values ahead:

Row | logP | SMILES
24 | 2.93 | O=[N+]([O-])c1ccc(/N=N/c2ccc(N(CCO)CCO)cc2Cl)cc1
25 | 1.8 | Nc1ccc(O)c2c1C(=O)c1ccccc1C2=O
26 | 2.49 | O=C1c2ccccc2C(=O)C1c1nc2ccccc2cc1O
27 | 4.12 | Cc1cc(N(CCO)CCO)ccc1/N=N/c1c(Cl)cc([N+](=O)[O-])cc1Cl
28 | 2.11 | O=C1c2ccccc2C(=O)c2c(NCCO)cccc21
29 | 2.87 | CNc1cccc2c1C(=O)c1ccccc1C2=O
30 | 1.94 | CNc1ccc(NCCO)c2c1C(=O)c1ccccc1C2=O
31 | 1.17 | O=C1c2ccccc2C(=O)c2c(NCCO)ccc(NCCO)c21
32 | 2.37 | Nc1ccc(/N=N/c2ccc([N+](=O)[O-])cc2)cc1
33 | 3.37 | CCN(CCO)c1ccc(/N=N/c2ccc([N+](=O)[O-])cc2)cc1
34 | 3.56 | CCOc1cc(/N=N/c2c(Br)cc([N+](=O)[O-])cc2[N+](=O)[O-])c(NC(C)=O)cc1N(CCOC(C)=O)CCOC(C)=O
35 | 3.79 | CN(C)c1ccc(/N=N/c2ccc([N+](=O)[O-])cc2)cc1
36 | 2.44 | Cc1cc(N(CCO)CCO)ccc1/N=N/c1ccc([N+](=O)[O-])cc1[N+](=O)[O-]
37 | 2.7 | CNc1ccc(NC)c2c1C(=O)c1ccccc1C2=O
38 | 3.59 | O=[N+]([O-])c1ccc(/N=N/c2ccccc2)cc1
39 | 2.34 | O=C1c2ccccc2C(=O)c2c1ccc(O)c2O
40 | 4.2 | O=c1[nH]c2ccccc2c(O)c1/N=N/c1ccccc1
41 | 3.18 | Oc1ccc(/N=N/c2ccccc2)cc1
42 | 2.85 | CC(=O)Nc1ccc(/N=N/c2cc(C)ccc2O)cc1
43 | 4.08 | CCN(CCO)c1ccc(/N=N/c2ccc([N+](=O)[O-])cc2Cl)cc1
44 | 6.02 | Cc1cc(Cl)cc2c1C(=O)/C(=C1\Sc3cc(Cl)cc(C)c3C1=O)S2
45 | 4.56 | Clc1ccc(/N=N/c2ccccc2)cc1
46 | 1.79 | O=[N+]([O-])c1ccc(/N=N/c2ccc(N(CCO)CCO)cc2)c([N+](=O)[O-])c1
47 | 4.34 | CN(CCO)c1ccc(/N=N/c2c(Cl)cc([N+](=O)[O-])cc2Cl)cc1
48 | 3.88 | O=[N+]([O-])c1ccc(Nc2ccc(O)cc2)c([N+](=O)[O-])c1
49 | 6.66 | O=C1C(c2[nH]c3c(Br)cc(Br)cc3c2O)=Nc2c(Br)cc(Br)cc21
50 | 4.68 | Nc1c(Oc2ccccc2)cc(O)c2c1C(=O)c1ccccc1C2=O
